Reference: PubChem BioAssay (NCI)
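Results reflect a 48-hour exposure of cells in 96-well plates to compound at five concentrations. TGI marks complete inhibition of growth.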

Experiments:
Assay in all cases: NCI tumour cell line growth inhibition, 48 h
HL-60(TB) leukemia = system: HL-60(TB) leukemia
DU-145 prostate = system: DU-145 prostate
SK-MEL-28 melanoma = system: SK-MEL-28 melanoma
PC-3 prostate = system: PC-3 prostate
T-47D breast = system: T-47D breast
786-0 renal = system: 786-0 renal
IGROV1 ovarian = system: IGROV1 ovarian
MDA-MB-435 = system: MDA-MB-435
KM12 colon = system: KM12 colon

Compound | TGI (HL-60(TB) leukemia) [µM] | TGI (DU-145 prostate) [µM] | TGI (SK-MEL-28 melanoma) [µM] | TGI (PC-3 prostate) [µM] | TGI (T-47D breast) [µM] | TGI (786-0 renal) [µM] | TGI (IGROV1 ovarian) [µM] | TGI (MDA-MB-435) [µM] | TGI (KM12 colon) [µM]
O=C(n1c(=O)n(-c2ccc(Cl)cc2)c(=O)n1C(=O)C(Cl)(Cl)Cl)C(Cl)(Cl)Cl | > 100 | > 100 | > 100 | > 100 | > 100 | > 100 | > 100 | > 100 | > 100
O=C1NC(=NC2CCCCC2)C2(CCN(CCCC3(c4ccc(F)cc4)OCCO3)CC2)N1c1ccccc1 | 28.7 | 33.8 | 35.6 | 38.4 | 53.2 | 30.2 | – | 42.5 | 38.9
CC(=O)OC[C@@H](OC(C)=O)[C@@H](OC(C)=O)[C@H]1OC[C@@H]2C[C@H]([C@H]1OC(C)=O)N(Cc1ccccc1)O2 | > 100 | > 100 | > 100 | > 100 | > 100 | > 100 | > 100 | > 100 | > 100
Cc1ccc(/C(O)=C/c2nc3ccccc3[nH]c2=O)c(C)c1 | > 100 | > 70.5 | 54.6 | > 61.5 | > 69.7 | 14.7 | > 59.9 | > 100 | > 61.5
COC(=O)c1c(O)ccc2c1c1c(n2-c2ccc(OC)cc2)C(=O)c2ccccc2C1=O | > 100 | 48.3 | > 100 | 74.1 | 66.2 | 29.1 | 91.6 | > 100 | 77.8
O/N=C1\CCc2cc3c(cc21)CCC3 | > 100 | > 100 | > 100 | > 100 | > 100 | > 100 | > 100 | > 100 | > 100
O=C(OC(/C=C/c1ccccc1)P1(=O)N(Cc2ccccc2)[C@@H]2CCCC[C@H]2N1Cc1ccccc1)c1ccccc1 (some centres not stated) | 7.43 | > 100 | > 100 | > 100 | > 100 | > 100 | > 25.6 | > 100 | > 100
CN1CCN(CCCCN2c3ccccc3Sc3ccc(N=[N+]=[N-])cc32)CC1 | 3.69 | 26.6 | 3.73 | 15.9 | 36.2 | 22.6 | 23.3 | 3.94 | 20.8
OC(C/C(=N\N=C(/CC(O)(C(F)(F)F)C(F)(F)F)c1ccccc1)c1ccccc1)(C(F)(F)F)C(F)(F)F | > 10 | > 10 | > 10 | > 10 | > 10 | > 10 | > 10 | > 10 | > 10
O=C1C(=C(C(=O)c2ccccc2)C(=O)c2ccccc2)OC(c2ccccc2)=C1C(=O)c1ccccc1 | 30.8 | 48.8 | 59 | > 100 | 53.6 | 20 | 8.84 | 35.4 | 42.3
CC(C)(C)N(Cc1ccoc1)C(=O)/C=C\S(=O)c1ccccc1 (configuration not stated) | 47.5 | 25.7 | 44.4 | 27.8 | 38.2 | 67 | 32.9 | 20.7 | 34.5
Cc1ccc(S(=O)(=O)NC2=NS(=O)(=O)c3cc(C)c(Cl)cc3S2)cc1 | > 100 | > 100 | > 100 | > 100 | > 100 | > 100 | > 100 | > 100 | > 100
CC[N+]1(C)CCC(O)(/C=C/c2ccc(Cl)cc2)C(C(=O)/C=C/c2ccc(Cl)cc2)C1 (configuration not stated) | 4.87 | 27.6 | 23.2 | 27.7 | 77.4 | > 26.5 | > 22.4 | 22.4 | 10.3
CCN1C[C@]2(C)CC[C@H](OCc3ccccc3)C34C5C[C@@H]6CC[C@](O)(C(C[C@@H]32)C14)C5[C@H]6OCc1ccccc1 (some centres not stated) | – | > 100 | > 100 | > 100 | > 100 | > 100 | > 100 | > 100 | > 100
Cc1nn(C(=O)Cc2ccccc2)c2c1C(c1ccccc1[N+](=O)[O-])SC(N)=N2 (configuration not stated) | > 100 | > 100 | > 100 | > 100 | > 100 | > 100 | > 100 | > 100 | > 100
CCOC(=O)C(=CNC(=S)Nc1c(CC)cccc1CC)C(=O)OCC | > 100 | > 100 | > 100 | > 100 | > 100 | > 100 | > 100 | > 100 | > 100
COc1cc(C2(O)c3ccccc3C3=NCCN32)cc(OC)c1OC (configuration not stated) | > 100 | > 100 | > 100 | > 100 | > 100 | > 100 | – | > 100 | > 100
[C-]#[N+]C1(C(=O)OCC)CC1 | > 100 | > 100 | > 100 | > 100 | > 100 | > 100 | > 100 | > 100 | –
CC(C)c1ccc2[nH]c(O)c(C3=Nc4ccccc4C3=O)c2c1 | – | 94.5 | > 100 | 54.8 | 17.2 | 12.3 | 65.8 | > 100 | > 100
COc1ccc(/C=C2\CN(C)CC3C2=NC(=S)NC3c2ccc(OC)cc2)cc1 (configuration not stated) | 14.8 | 26.4 | > 100 | > 50 | > 29.9 | > 68.5 | > 22.6 | 7.86 | > 65.8
COC(=O)C1(C)CCCC2(C)C3CCC4CC3(C=C4CO)CCC12 (configuration not stated) | 43.9 | > 100 | > 100 | > 100 | > 100 | > 100 | > 100 | > 100 | –
CCOC(=O)c1nc2ccccc2nc1Oc1ccc(OC)cc1 | > 100 | > 100 | > 100 | > 100 | > 100 | > 100 | > 100 | > 100 | > 100
